# Reference: US20250129078A1, “ERBB2 INHIBITORS” (Cogent Biosciences, Inc., priority 2023, published 2025)
# Counter-ions that a name gives are not always drawn.
# Molecular target: EGFR WT (Homo sapiens (Human), UniProt P00533)
# Test: ErbB enzyme assay (CisBio HTRF-KinEASE-TK), EGFR WT
# Type: biochemical
# Conditions: ATP at Km (25 μM), 1 h incubation
# Experimental: In vitro enzyme assays based on CisBio HTRF-KinEASE-TK technology were used to determine compound potencies. […]. Compounds were prepared as a three-fold serial dilution in DMSO and added to the assay to give the appropriate final concentration. After a 1 h incubation at ambient temperature, the reaction was quenched by adding 10 μL of 62.5 nM Sa-XL665 and 0.25×TK-Ab-Cryptate in HTRF detection buffer (all from CisBio, part of cat #62TKOPEC). After another 1 h incubation at ambient temperature, the extent of substrate phosphorylation was determined using a PerkinElmer EnVision multimode plate reader via time-resolved fluorescence dual wavelength detection. The percent of control (POC) was calculated using the ratio of emission at […] to the emission at 620 nm. One hundred POC was determined using DMSO only controls (no test compounds present) and zero POC was determined using pre-quenched controls reactions. A 4-parameter logistic equation was fit to the POC values as a function of the test compound concentration and the IC50 value was determined as the point where the curve crossed 50 POC.
# Sequence of EGFR WT (P00533 25-1210): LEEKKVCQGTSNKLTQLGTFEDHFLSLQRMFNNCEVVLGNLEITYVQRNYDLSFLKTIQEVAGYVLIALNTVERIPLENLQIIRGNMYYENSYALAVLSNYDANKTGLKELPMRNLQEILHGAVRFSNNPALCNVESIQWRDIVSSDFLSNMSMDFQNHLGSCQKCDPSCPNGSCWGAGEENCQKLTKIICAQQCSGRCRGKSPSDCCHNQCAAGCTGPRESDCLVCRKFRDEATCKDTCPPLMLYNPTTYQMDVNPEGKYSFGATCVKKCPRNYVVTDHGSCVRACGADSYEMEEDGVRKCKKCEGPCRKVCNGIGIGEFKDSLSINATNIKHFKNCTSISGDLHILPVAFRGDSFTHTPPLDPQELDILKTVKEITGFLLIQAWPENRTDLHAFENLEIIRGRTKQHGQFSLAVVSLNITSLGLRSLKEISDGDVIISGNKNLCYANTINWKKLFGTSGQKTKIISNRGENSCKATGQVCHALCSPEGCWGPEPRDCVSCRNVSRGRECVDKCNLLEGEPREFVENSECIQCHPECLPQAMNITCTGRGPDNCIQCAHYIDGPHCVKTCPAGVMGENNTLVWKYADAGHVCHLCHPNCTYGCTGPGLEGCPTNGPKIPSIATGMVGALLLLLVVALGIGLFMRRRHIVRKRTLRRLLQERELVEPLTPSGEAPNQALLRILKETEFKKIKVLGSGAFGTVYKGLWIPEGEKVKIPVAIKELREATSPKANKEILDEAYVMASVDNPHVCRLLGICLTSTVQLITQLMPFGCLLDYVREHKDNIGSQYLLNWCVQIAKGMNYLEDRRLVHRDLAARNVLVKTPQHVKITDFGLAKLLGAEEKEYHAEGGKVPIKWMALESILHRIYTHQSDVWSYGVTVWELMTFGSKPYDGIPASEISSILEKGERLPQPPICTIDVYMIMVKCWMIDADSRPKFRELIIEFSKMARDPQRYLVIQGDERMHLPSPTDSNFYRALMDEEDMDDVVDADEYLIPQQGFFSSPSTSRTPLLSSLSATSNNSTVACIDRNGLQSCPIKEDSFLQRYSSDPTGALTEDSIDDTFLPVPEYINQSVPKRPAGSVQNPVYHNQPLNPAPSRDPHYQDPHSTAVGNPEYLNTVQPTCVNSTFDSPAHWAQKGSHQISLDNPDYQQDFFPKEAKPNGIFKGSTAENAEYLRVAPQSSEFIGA
row,IC50,Compound
1,100 to 500 nM,"Cc1cc(Nc2ncnc3ccc(N4CC5CC(C4)N5C(=O)/C=C/C(F)F)nc23)ccc1Oc1ccc2c(c1)nnn2C [Compound 359, (E)-4,4-difluoro-1-(3-(4-((3-methyl-4-((1-methyl-1H-benzo[d][1,2,3]triazol-5-yl)oxy)phenyl)amino)pyrido[3,2-d]pyrimidin-6-yl)-3,6-diazabicyclo[3.1.1]heptan-6-yl)but-2-en-1-one]"
2,≥ 1000 nM,"C=C(F)C(=O)N1C2C=C(c3ccc4ncnc(Nc5ccc(Oc6ccc7c(c6)nnn7C)c(C)c5)c4n3)CC1CC2 (stereo not shown) [Compound 411, 2-fluoro-1-(3-(4-((3-methyl-4-((1-methyl-1H-benzo[d][1,2,3]triazol-5-yl)oxy)phenyl)amino)pyrido[3,2-d]pyrimidin-6-yl)-8-azabicyclo[3.2.1]oct-2-en-8-yl)prop-2-en-1-one trifluoroacetate]"
3,100 to 500 nM,"Cc1cc(Nc2ncnc3ccc(N4CCN(C(=O)/C=C/CF)[C@H](C)C4)nc23)ccc1Oc1ccc2c(c1)nnn2C [Compound 364, (R,E)-4-fluoro-1-(2-methyl-4-(4-((3-methyl-4-((1-methyl-1H-benzo[d][1,2,3]triazol-5-yl)oxy)phenyl)amino)pyrido[3,2-d]pyrimidin-6-yl)piperazin-1-yl)but-2-en-1-one]"
4,100 to 500 nM,"C=CC(=O)N[C@@H]1C[C@@H](C)CN(c2ccc3ncnc(Nc4ccc(Oc5ccc6c(c5)nnn6C)c(C)c4F)c3n2)C1 (single isomer, unassigned) [Compound 338]"
5,50 to 100 nM,"C=CC(=O)N1CCC(Oc2ncc3ncnc(Nc4ccc(Oc5ccc6c(c5)ncn6C)c(C)c4)c3n2)CC1 [Compound 378, 1-(4-((8-((3-methyl-4-((1-methyl-1H-benzo[d]imidazol-5-yl)oxy)phenyl)amino)pyrimido[5,4-d]pyrimidin-2-yl)oxy)piperidin-1-yl)prop-2-en-1-one]"
6,100 to 500 nM,"C=CC(=O)N1CCN(c2ccc3ncnc(Nc4ccc(Oc5cc6nnn(C)c6c(C)c5F)c(C)c4)c3n2)C[C@H]1C [Compound 288, (R)-1-(4-(4-((4-((6-fluoro-1,7-dimethyl-1H-benzo[d][1,2,3]triazol-5-yl)oxy)-3-methylphenyl)amino)pyrido[3,2-d]pyrimidin-6-yl)-2-methylpiperazin-1-yl)prop-2-en-1-one]"
7,≥ 1000 nM,"C=C(F)C(=O)N1C2C=C(c3ccc4ncnc(Nc5ccc(Oc6ccc7c(c6)nnn7C)c(C)c5)c4n3)CC1CCC2 (stereo not shown) [Compound 406, 2-fluoro-1-(3-(4-((3-methyl-4-((1-methyl-1H-benzo[d][1,2,3]triazol-5-yl)oxy)phenyl)amino)pyrido[3,2-d]pyrimidin-6-yl)-9-azabicyclo[3.3.1]non-2-en-9-yl)prop-2-en-1-one trifluoroacetate]"
8,50 to 100 nM,"COC[C@@H]1CN(c2ccc3ncnc(Nc4ccc(Oc5ccc6c(c5)nnn6C)c(C)c4F)c3n2)CCN1C(=O)/C=C/CF [Compound 361, (S,E)-4-fluoro-1-(4-(4-((2-fluoro-3-methyl-4-((1-methyl-1H-benzo[d][1,2,3]triazol-5-yl)oxy)phenyl)amino)pyrido[3,2-d]pyrimidin-6-yl)-2-(methoxymethyl)piperazin-1-yl)but-2-en-1-one]"
9,≥ 1000 nM,"C=CC(=O)N[C@H]1CN(c2ccc3ncnc(Nc4ccc(Oc5ccc6c(c5)nnn6C)c(C)c4F)c3n2)CC[C@H]1C [Compound 341, N-((3R,4R)-1-(4-((2-fluoro-3-methyl-4-((1-methyl-1H-benzo[d][1,2,3]triazol-5-yl)oxy)phenyl)amino)pyrido[3,2-d]pyrimidin-6-yl)-4-methylpiperidin-3-yl)acrylamide]"

# The next lines start with the molecule.
row,Compound,IC50
1,"C=CC(=O)N1CCN(c2ccc3ncnc(Nc4ccc(Oc5ccc6c(c5)nnn6C)c(C)c4)c3n2)C[C@@H]1C [Compound 72, (S)-1-(2-methyl-4-(4-((3-methyl-4-((1-methyl-1H-benzo[d][1,2,3]triazol-5-yl)oxy)phenyl)amino)pyrido[3,2-d]pyrimidin-6-yl)piperazin-1-yl)prop-2-en-1-one]",100 to 500 nM
2,"C=CC(=O)N1CCCN(c2ncc3ncnc(Nc4ccc(Oc5ccc6c(c5)nnn6C)c(C)c4)c3n2)C[C@H]1C [Compound 227, (R)-1-(2-methyl-4-(8-((3-methyl-4-((1-methyl-1H-benzo[d][1,2,3]triazol-5-yl)oxy)phenyl)amino)pyrimido[5,4-d]pyrimidin-2-yl)-1,4-diazepan-1-yl)prop-2-en-1-one]",≥ 1000 nM
3,"C=CC(=O)N1CC2CCC1CN2c1ncc2ncnc(Nc3ccc(Oc4ccc5c(c4)nnn5C)c(C)c3)c2n1 (stereo not shown) [Compound 62, 1-(5-(8-((3-methyl-4-((1-methyl-1H-benzo[d][1,2,3]triazol-5-yl)oxy)phenyl)amino)pyrimido[5,4-d]pyrimidin-2-yl)-2,5-diazabicyclo[2.2.2]octan-2-yl)prop-2-en-1-one]",< 50 nM
4,"C=CC(=O)N1CCN(c2ncc3ncnc(Nc4ccc(Oc5cc(C)c6c(c5)nnn6C)c(C)c4)c3n2)CC1 [Compound 130, 1-(4-(8-((4-((1,7-dimethyl-1H-benzo[d][1,2,3]triazol-5-yl)oxy)-3-methylphenyl)amino)pyrimido[5,4-d]pyrimidin-2-yl)piperazin-1-yl)prop-2-en-1-one]",< 50 nM
5,"C=CC(=O)N1CCN(c2ncc3ncnc(Nc4ccc(Oc5cc6nnn(C)c6cc5C)c(C)c4)c3n2)CC1 [Compound 136, 1-(4-(8-((4-((1,6-dimethyl-1H-benzo[d][1,2,3]triazol-5-y1)oxy)-3-methylphenyl)amino)pyrimido[5,4-d]pyrimidin-2-yl)piperazin-1-yl)prop-2-en-1-one]",100 to 500 nM
6,C=CC(=O)N1CCN(c2ncc3ncnc(Nc4ccc(Oc5cc6ncnn6cc5C)c(C)c4)c3n2)C[C@H]1C [Compound 182],500 to 1000 nM
7,"C=CC(=O)N1CCN(c2ncc3ncnc(Nc4ccc(Oc5cc(F)c6c(c5)ncn6C)c(C)c4)c3n2)C[C@H]1CC [Compound 163, (R)-1-(2-ethyl-4-(8-((4-((7-fluoro-1-methyl-1H-benzo[d]imidazol-5-yl)oxy)-3-methylphenyl)amino)pyrimido[5,4-d]pyrimidin-2-yl)piperazin-1-yl)prop-2-en-1-one]",100 to 500 nM
8,"C=CC(=O)N1[C@H](C)CN(c2ncc3ncnc(Nc4ccc(Oc5ccc6c(c5)nnn6C)c(C)c4)c3n2)C[C@H]1C [Compound 183, 1-((2R,6R)-2,6-dimethyl-4-(8-((3-methyl-4-((1-methyl-1H-benzo[d][1,2,3]triazol-5-yl)oxy)phenyl)amino)pyrimido[5,4-d]pyrimidin-2-yl)piperazin-1-yl)prop-2-en-1-one]",≥ 1000 nM
9,"C=CC(=O)N1CC2CCC(C1)N2c1ccc2ncnc(Nc3ccc(Oc4ccc5c(c4)nnn5C)c(C)c3)c2n1 [Compound 71, 1-(8-(4-((3-methyl-4-((1-methyl-1H-benzo[d][1,2,3]triazol-5-yl)oxy)phenyl)amino)pyrido[3,2-d]pyrimidin-6-yl)-3,8-diazabicyclo[3.2.1]octan-3-yl)prop-2-en-1-one]",< 50 nM
10,"C=C(COC)C(=O)N1CCN(c2ncc3ncnc(Nc4ccc(Oc5ccc6c(c5)nnn6C)c(C)c4)c3n2)CC1 [Compound 54, 2-(methoxymethyl)-1-(4-(8-((3-methyl-4-((1-methyl-1H-benzo[d][1,2,3]triazol-5-yl)oxy)phenyl)amino)pyrimido [5,4-d]pyrimidin-2-yl)piperazin-1-yl) prop-2-en-1-one]",≥ 1000 nM
11,"C=CC(=O)N1CCN(c2ncc3ncnc(Nc4ccc(Oc5cnn6ccnc6c5)c(C)c4)c3n2)CC1 [Compound 234, 1-(4-(8-((4-(imidazo[1,2-b]pyridazin-7-yloxy)-3-methylphenyl)amino)pyrimido[5,4-d]pyrimidin-2-yl)piperazin-1-yl)prop-2-en-1-one]",< 50 nM
12,"C=CC(=O)N1CCCN(c2ncc3ncnc(Nc4ccc(Oc5ccc6c(c5)nnn6C)c(C)c4)c3n2)C[C@@H]1C [Compound 165, (S)-1-(2-methyl-4-(8-((3-methyl-4-((1-methyl-1H-benzo[d][1,2,3]triazol-5-yl)oxy)phenyl)amino)pyrimido[5,4-d]pyrimidin-2-y1)-1,4-diazepan-1-yl)prop-2-en-1-one]",≥ 1000 nM
13,"C=CC(=O)N1CCN(c2ncc3ncnc(Nc4ccc(Oc5cc(F)c6c(c5)nnn6C)c(C)c4F)c3n2)C[C@@H]1C1CC1 [Compound 192, (S)-1-(2-cyclopropyl-4-(8-((2-fluoro-4-((7-fluoro-1-methyl-1H-benzo[d][1,2,3]triazol-5-yl)oxy)-3-methylphenyl)amino)pyrimido[5,4-d]pyrimidin-2-y1)piperazin-1-yl)prop-2-en-1-one]",500 to 1000 nM
14,"C=CC(=O)N1CCN(c2ncc3ncnc(Nc4ccc(Oc5cc6nnn(C)c6c(C)c5F)c(C)c4)c3n2)CC1 [Compound 141, 1-(4-(8-((4-((6-fluoro-1,7-dimethyl-1H-benzo[d][1,2,3]triazol-5-yl)oxy)-3-methylphenyl)amino)pyrimido[5,4-d]pyrimidin-2-yl)piperazin-1-yl)prop-2-en-1-one]",100 to 500 nM
15,"C=CC(=O)N[C@]1(C)CCN(c2ncc3ncnc(Nc4ccc(Oc5ccc6c(c5)nnn6C)c(C)c4F)c3n2)C1 [Compound 161, (R)-N-(1-(8-((2-fluoro-3-methyl-4-((1-methyl-1H-benzo[d][1,2,3]triazol-5-yl)oxy)phenyl)amino)pyrimido[5,4-d]pyrimidin-2-yl)-3-methylpyrrolidin-3-yl)acrylamide]",< 50 nM
16,"C=CC(=O)N[C@H]1CN(c2ccc3ncnc(Nc4ccc(Oc5ccc6c(c5)nnn6C)c(C)c4)c3n2)C[C@H]1F [Compound 277, N-((3S,4R)-4-fluoro-1-(4-((3-methyl-4-((1-methyl-1H-benzo[d][1,2,3]triazol-5-yl)oxy)phenyl)amino)pyrido[3,2-d]pyrimidin-6-yl)pyrrolidin-3-yl)acrylamide]",100 to 500 nM
